The record followed here is patent publication US20050100888A1, “Methods based on hormone dependency of primary cancer cells” (Imperial College Innovations Limited, priority 2002, published 2005).

Test [1] concerns the target T1, estrogen receptor (ER) (Homo sapiens, UniProt P03372).
T1 sequence (P03372 1-595): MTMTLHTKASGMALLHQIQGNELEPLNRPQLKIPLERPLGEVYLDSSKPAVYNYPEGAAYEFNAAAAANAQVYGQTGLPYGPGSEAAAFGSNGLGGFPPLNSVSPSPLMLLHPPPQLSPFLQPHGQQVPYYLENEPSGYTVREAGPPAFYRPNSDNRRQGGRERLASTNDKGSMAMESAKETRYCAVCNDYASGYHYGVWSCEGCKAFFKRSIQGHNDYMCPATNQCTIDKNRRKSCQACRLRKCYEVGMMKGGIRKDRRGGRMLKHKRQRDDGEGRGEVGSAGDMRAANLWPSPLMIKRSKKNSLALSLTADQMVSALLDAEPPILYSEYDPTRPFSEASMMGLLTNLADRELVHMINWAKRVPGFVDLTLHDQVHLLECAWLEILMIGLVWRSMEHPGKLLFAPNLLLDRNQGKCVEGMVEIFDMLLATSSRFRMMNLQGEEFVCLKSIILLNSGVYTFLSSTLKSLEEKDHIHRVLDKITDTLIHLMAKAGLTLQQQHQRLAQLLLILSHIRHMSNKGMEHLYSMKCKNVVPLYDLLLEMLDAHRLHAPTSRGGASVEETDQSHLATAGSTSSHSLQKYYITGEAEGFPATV
The settings on record: antagonist at 10^−7M; MCF7, virus 100:1, 48 hours. The protocol:
(§1) Cells were incubated for 48 hours following infections unless stated otherwise.
(§2) Reporter Gene Assay 48 hours after virus infection, 20 ul of 20% Triton in PBS was added to each well and incubated at RT for 10 minutes. […] (CRPG) made up in TBS at a concentration of 8 mg/ml was then added to the wells and the plate was incubated, foil-wrapped, at 37° C. until a colour change was observed. Plate readings were taken at a wavelength of 547 nm.

Test [2] relates to estrogen receptor (ER). Briefly: adenoERreporter assay in breast cancer cells from metastatic effusions (pleural, ascites). It is filed as cell-based, human.
Source text: In the case of metastatic fluid, 100 mls of the fluid was sent for cytological examination and staining for ER and PR. The remaining fluid was centrifuged and the cell pellets were pooled. This was re-suspended in RPMI-1640/1% FCS and tumour cell numbers estimated as before. If the cells were in clusters, trypsin/EDTA (Sigma, Poole, UK) was used to obtain single cell suspensions before filtering to remove any debris. The remaining steps were as above. The purified cells were either infected immediately or cultured for a few days prior to infection.
(§3) For infections of primary cells, 6-10,000 cells/well were allowed and exposed to the given quantity of virus, after which they were pelleted and re-supended in 200 ul of PR free/5% DSS medium containing the appropriate ligands prior to plating into 96-well plates.
as §2
(§4) We purified breast cancer cells from metastatic fluid, both pleural and ascites as well as fine needle aspirates (FNA) from recurrent breast cancer. These cells were counted and infected with adenoERreporter and after 48 hours a β-gal assay was performed. We have infected 9 metastatic effusions including 2 cell lines of passage number two, derived from pleural effusions and 4 FNAs. Tables 3 and 4 show the treatment history and characteristics of the patients that provided the samples. Where possible, some of the fluid was sent for cytology and ER staining.
(In general: Reporter assays use an easily measured gene product as a stand-in for the process of interest.)

In test [3] the test system is estrogen receptor (ER). Briefly: adenoERreporter assay in fine needle aspirates (FNA) from recurrent breast cancer. In kind it is cell-based, human. The protocol:
Cells obtained from FNAs were collected in PBS (Sigma, Poole, UK) containing 2% FCS. If the aspirate was bloody, erythrocyte lysis buffer (0.155M NH4Cl, 10 mM KHCO3, 0.1 mM EDTA, pH 7.4) was used to lyse the red blood cells and after a further wash with PBS, the cells were re-suspended in culture media for counting and immediate infections.
as §3, §2
as §4, with “staining. However, this was not always feasible due to the variability of cancer cells in the metastatic fluid.” for “staining.”

Test [4] concerns estrogen receptor (ER). Briefly: adeno-reporter assay in purified primary breast cancer cells (tumour, lymph node). It is filed as cell-based, human. The settings on record: for Reporter response: E2 10 nM, OHT 100 nM, ICI 100 nM, 48 h. The protocol:
(§5) The product was then filtered through a nylon mesh (Lockertex Ltd, Merseyside, UK) and the filtrate centrifuged at 2000 rpm, at room temperature (RT). The pellet was re-suspended in 9 mls of RPMI/1% FCS and a cell count performed to estimate the number of tumour cells in the preparation. […] A count of viable tumour cells was performed using trypan blue (Sigma, Poole, UK) prior to seeding in breast complete medium (DMEM/F-12 containing, 15 mM Hepes, 2 mM L-glutamine, 100U/ml penicillin, O. 1 mg/ml streptomycin, 50 U/ml polymixin B, 2.5 μg/ml amphotericin B, 5 μg/ml insulin, 10 μg/ml apo-transferrin, 100 μM ethanolamine, 1 μg/ml hydrocortisone, 10 ng/ml EGF) plus 5% FCS) for culture. The cells were used for experiments on day 3 after the initial plating.
as §3, §1, §2
(§6) We have used the adeno-reporter to infect purified cells from breast cancer and lymph nodes of 19 patients. The reporter assay was performed in a blinded fashion since the IHC report of ER status was not available until after the experiments were complete. Viral infections were performed in suspension so as not to loose cancer cells since they were only loosely adherent. Following exposure to the virus for an hour, the cells were washed to remove excess virus and then plated and incubated in PR free/5% DSS supplemented with the given ligands for 48 hours.

The target in test [5] is T1, estrogen receptor (ER). Described as above. It is filed as cell-based. The settings on record: E2 10 nM, OHT 100 nM, ICI 100 nM, 48 h. As for the experimental part: as §5, §3, §1, §2, §6
Test [6] deals with T1, estrogen receptor (ER). The note with it: ER positive cell lines (MCF-7, T47-D, ZR75-1, BT474), virus 100:1, ligands 10^−7M. As for the experimental part: as §2

Consider `C[C@]12CC[C@@H]3c4ccc(O)cc4C[C@@H](CCCCCCCCC[S+]([O-])CCCC(F)(F)C(F)(F)F)[C@H]3[C@@H]1CC[C@@H]2O` (stereo partly drawn) [ICI 182,780], for which the “effect on E2 induced reporter activity” value at estrogen receptor (ER) [1] is recorded as “blocked E2 induced reporter activity”. Besides, the “Reporter Activity” value in the test with estrogen receptor (ER) [2] (Table 3 patient 7) T4G3N1M0, Ascites, ER−/PR−, no prior endocrine treatment) is listed as “x1.0”; with estrogen receptor (ER) [2] (Table 3 patient 8) T1G1N1M0, Ascites, primary ER−/PR+, recurrent ER++/PR−, prior LHRH 11m, Arimidex), “↓↓”; in the test on estrogen receptor (ER) [3] (Table 4 patient 8) T2GN0M0, primary ER++/PR−, FNA ER−/PR−, prior Arimidex 1y) it was “x1.0”. Moreover, the “effect on ER activity” value in the test on estrogen receptor (ER) [2] (patient 4 (table 3), ascites, no previous treatment) was “inhibitory”. In addition, in the test on estrogen receptor (ER) [2] (relapsed patients, metastatic effusions and FNAs), the “proportion of cases in which inhibitory” value stood at 50%. Besides, the “Reporter Assay: inhibition” value in the test with estrogen receptor (ER) [3] (FNA summary table, N = 1, IHC ER−/PR−, ?Responder) is given as “OHT/ICI inhibit by × 1.8”. In addition, the Reporter response entry was “inh” with estrogen receptor (ER) [4] (Table 2 patient 3 Ln); “ns” in the test on estrogen receptor (ER) [4] (Table 2 patient 5 Ln, ER+/PR−, Pre); “ns” in the test on estrogen receptor (ER) [4] (Table 2 patient 8, ER+++/PR−, Post); “inh” in the test on estrogen receptor (ER) [4] (Table 2 patient 11, receptor status ?); “ns” in the test on estrogen receptor (ER) [4] (Table 2 patient 12 Ln); “ns” in the test with estrogen receptor (ER) [4] (Table 2 patient 12 Tu, Anaplastic small cell carcinoma, ER−/PR−). Moreover, the Reporter response entry in the test with estrogen receptor (ER) [4] (Table 2 patient 13, ER−/PR−, Post) was “ns”; in the test with estrogen receptor (ER) [4] (Table 2 patient 15 Ln), “ns”; in the test with estrogen receptor (ER) [4] (Table 2 patient 15 Tu, ER−/PR−) it was “ns”; in the test on estrogen receptor (ER) [4] (Table 2 patient 16 Ln), “ns”; in the test with estrogen receptor (ER) [4] (Table 2 patient 16 Tu, Post), “ns”; in the test on estrogen receptor (ER) [4] (Table 2 patient 17), “ns”. Moreover, the Reporter response result is “ns” in the test on estrogen receptor (ER) [4] (Table 2 patient 18, ER−/PR−); “inh” on estrogen receptor (ER) [5] (Table 2 patient 6, ER+++/PR+++); “inh” at estrogen receptor (ER) [5] (Table 2 patient 7, ER+++/PR+++, Post). Also, in the test with estrogen receptor (ER) [4] (purified cells from breast cancer and lymph nodes of 19 patients), the “effect on reporter activity across patient samples” value was “inhibitory in all cases”. At estrogen receptor (ER) [6], the “reporter activity above baseline” value is given as “blocked even the baseline activity”.
